The record followed here is US6121257A, “Sulfamate containing macrocyclic immunomodulators” (Abbott Laboratories, priority 1999, dated 2000).

The test system of data set [1] is human mixed lymphocyte reaction (MLR). As to the kind of experiment: human mixed lymphocyte reaction (MLR) assay. To be noted: Table 1. Type of data set: cell-based. As to the method: The immunosuppressant activity of the compounds of the present invention was determined using the human mixed lymphocyte reaction (MLR) assay described by Kino, T. et al., in Transplantation Proceedings, XIX(5):36-39, Suppl. 6 (1987), hereby incorporated by reference.

A short description of another data set: in vivo. On the set-up: species or system Lewis rats. Conditions: rat, 5 mg/kg. As to the method:
In Vivo Assay of Biological Activity Whole blood concetration in the Rat.
Lewis rats (obtained from Charles River, Wilmington, Mass.), weighing 225-250 grams, were acclimated for one week in a AAALAC approved facility. All animals were fasted overnight prior to dosing and throughout the study period but were permitted free access to water. Groups of animals were given FK-506 or Example 14 at a dose of 5 mg/kg. Drugs were given in a 2 ml/kg volume of 10% ethanol, 40% propylene glycol and 2% cremophore in 5% dextrose solution for both oral (p.o.) and intraperitoneal (i.p.) administration, and in a 1 ml/kg volume of the same vehicle without cremophor for intravenous (i.v.) dosing. Blood samples were collected from the tail vein in heparinized tubes at selected time points 0.25, 2.0, and 4.0 hours after dosing.
Drugs were separated from the hemolyzed whole blood contaminants utilizing liquid-liquid extraction with ethyl acetate:hexane (1:1 by volume). Samples were centrifuged at 1200 x g for 10 minutes (4° C.) and a constant volume of the organic layer was transferred to a conical centrifuge tube and evaporated to dryness with a gentle stream of dry air over low heat (~35° C.). The samples were reconstituted with 40% (v/v) acetonitrile in water with vortexing. The compounds of interest were separated from the co-extracted components by a 5 cm×4.6 mm, 3 μm Spherisorb ODS-2 column (Regis, Morton Grove, Ill.) with an acetonitrile:methanol: 0.1% trifluoroacetic acid/0.01 M tetramethylammonium perchlorate mixture (45:5:50 by volume for FK506, 40:5:55 for analogue Example 14) at a flow rate of 1.0 ml/min with UV detection at 205 nm. The temperature of the HPLC column was maintained at 70° C.
The concentration of each sample in whole blood was calculated by a least squares linear regression analysis of the peak area compared to spiked rat blood standards.

Structures are written as SMILES.

The IC50 is the concentration that gives 50% inhibition. Compound `CC[C@@H]1/C=C(\C)C[C@H](C)C[C@H](OC)[C@H]2O[C@@](O)(C(=O)C(=O)N3CCCC[C@H]3C(=O)O[C@H](/C(C)=C/[C@@H]3CC[C@@H](OS(N)(=O)=O)[C@H](OC)C3)[C@H](C)[C@@H](O)CC1=O)[C@H](C)C[C@@H]2OC` [Example 14] showed an IC50 in data set [1] of 0.82 nM. Besides, in “in vivo”, the concentration at 0.25 h turned out to be 1400 ng/mL, the concentration at 2 h was determined as 50 ng/mL and the “elimination from the blood” value is on record as “rapidly eliminated from the blood after 2 hours”. Besides, the “Whole Blood Concentration at 4 hours” value in “in vivo” (240 min) was determined as 0.00 µg/mL.
Consider `C=CC[C@@H]1/C=C(\C)C[C@H](C)C[C@H](OC)[C@H]2O[C@@](O)(C(=O)C(=O)N3CCCC[C@H]3C(=O)O[C@H](/C(C)=C/[C@@H]3CC[C@@H](O)[C@H](OC)C3)[C@H](C)[C@@H](O)CC1=O)[C@H](C)C[C@@H]2OC` [FK-506, reference compound], for which, in the data set “in vivo”, the concentration at 0.25 h was found to be 1140 ng/mL, the concentration at 2 h turned out to be 440 ng/mL and the concentration at 4 h came out at 430 ng/mL.
